From patent US20040126359A1, “Hedgehog” (priority 2001, published 2004)

Key:
[1] = molecular target: endogenous Shh produced by activated mouse CD4+ T-cells (mouse) (UniProt Q62226); assay: cell-based or functional assay
CD4+ T-cells = assay: Taqman real time PCR of Shh, Ihh, HIP and Ptc expression in CD4+ T-cells (FIGS. 14, 15, 17); type: cell-based; conditions: for Shh expression / production by activated T-cells: cytokine added; for Hip expression / Shh expression: activated T-cells, IFNγ
Procedure: Expression in medium, in the presence of 50 ng/ml IL-10 and in the presence of 50 ng/ml IFN-γ was compared to expression in resting CD4+ T-cells;
Similar experiments were used to study the expression of Shh (FIG. 4) and Ptc (FIG. 5) in T-cells and the expression of components of the Hh signalling pathway in lymphoid tissues (FIG. 6). FIG. 14 illustrates the results of an RT-PCR analysis of Shh, Ihh, Hip and Ptc expression. Activation of T-cells induced a sustained and marked (approximately 80-fold) increase in Shh mRNA, peaking at 44 and 72 hours. It lead to a downregulation of Ptc.

endogenous Shh produced by activated mouse CD4+ T-cells (mouse), sequence (Q62226 25-198 limits assumed): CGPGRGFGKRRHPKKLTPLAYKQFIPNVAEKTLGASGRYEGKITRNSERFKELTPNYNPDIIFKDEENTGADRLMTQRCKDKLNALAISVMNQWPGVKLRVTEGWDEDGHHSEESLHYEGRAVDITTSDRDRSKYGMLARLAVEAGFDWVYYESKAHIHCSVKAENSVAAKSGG

neutralising anti-Shh antibody 5E1
% decrease in the proportion of CD4+ T-cells in S/G2 with anti-Shh antibody (50 µg/ml), cell cycle analysis [1]: 66.2 to 81.6%
% decrease in the proportion of CD4+ T-cells in S/G2 with anti-Shh antibody (50 µg/ml), cell cycle analysis, mean [1]: 73.4%
decrease in proliferation of sub-optimally activated CD4+ T-cells with 50 µg/ml anti-Shh antibody (3H-TdR incorporation) [1]: 71.3 to 85.1%

TGF-β
Shh expression / production by activated T-cells (CD4+ T-cells): down-regulate

IFNγ: cytokine interferon gamma
Hip expression (CD4+ T-cells; 24 and 48 hours): upreguated
Shh expression (CD4+ T-cells; 24 hours): downregulation
Shh expression (CD4+ T-cells; 48 hours): upregulation
Hip expression (CD4+ T-cells; 72 hours): downregulted
Shh expression / production by activated T-cells (CD4+ T-cells): downregulation

B1: IL-10: immunosuppressive cytokine, interleukin (protein, UniProt P22301 19-178, looked up)
Interleukin-10: SPGQGTQSENSCTHFPGNLPNMLRDLRDAFSRVKTFFQMKDQLDNLLLKESLLEDFKGYLGCQALSEMIQFYLEEVMPQAENQDPDIKAHVNSLGENLKTLRLRLRRCHRFLPCENKSKAVEQVKNAFNKLQEKGIYKAMSEFDIFINYIEAYMTMKIRN
Shh expression / production by activated T-cells (CD4+ T-cells): down-regulate
